Data as given in patent publication US11266645B2, “Methods for treating lymphoma” (Alexion Pharmaceuticals, Inc., priority 2018, dated 2022).
Values joined by “and” are separate entries in the source; they are usually repeats but may differ in a detail not shown here. Equal entries are not always repeated.

Legend:
[1] = system: patients with relapsed/refractory (r/r) B- and T-cell lymphoma; experiment: Phase 2 study of cerdulatinib 30 mg BID in relapsed/refractory B- and T-cell lymphoma (Example 2); type: in vivo, human
Description: This study intended to confirm the safety and efficacy of cerdulatinib dosed 30 mg orally BID in patients with relapsed/refractory (r/r) B- and T-cell lymphoma. Dose reductions were permitted to a minimum of 15 mg BID. Response was assessed by Lugano Classification criteria.
Ninety nine patients enrolled (FL: 36, CLL/SLL: 28, PTCL: 18, marginal zone lymphoma: 8, aggressive: 5, Waldenstrom's macroglobulinemia: 4) (Table 4). Median age is 68 (42-93) and median # of prior therapies is 3 (1-13) (Table 5). 30 patients had prior BTK, PI3K or BCL-2 inhibitor therapy. The most common AEs of any grade are diarrhea (42%), fatigue (36%), and nausea (32%). Grade 3+ AEs occurring in ≥5% patients are neutropenia (18%), lipase increase (15%), pneumonia (12%), diarrhea (10%), and fatigue (7%). 5 patients have had Grade 5 infections considered related to study drug (3 of 5 in the CLL cohort). The target PK range has been achieved with an average SSCmin of ˜0.8 μM.

[2] = Blood absolute lymphocyte counts (ALC); type: in vivo, human; conditions: 5 CLL/SLL patients
Description: Treatment-related increases in blood absolute lymphocyte counts (ALC) occurred in both CLL/SLL and FL patients (FIG. 6A and FIG. 6B). Of the 6 CLL/SLL patients treated with cerdulatinib, 5 remained on drug long enough to monitor ALC, which were elevated 0.3-10 fold relative to pre-treatment. For two of these patients, treatment-related changes in tumor cell surface activation and homing markers were additionally evaluated (FIG. 7A and FIG. 7B). As shown in the ALC plots over time (FIG. 6A and FIG. 6B), by the beginning of the second cycle of treatment (Cycle 2 Day 1; C2D1) there was considerable mobilization of tumor cells into the peripheral blood.

[3] = system: U-CLL cells and M-CLL cells; experiment: IL-4 treated U-CLL and M-CLL cells, immunoblotting; type: cell-based, human; conditions: 1 μM, 10 ng/mL IL-4, 24 hours
Description: U-CLL cells and M-CLL cells were treated with and without 10 ng/mL IL-4 for 24 hours in the presence or absence of 1 μM cerdulatinib. Immunoblotting was used to protein expression among the different treatments. […] FIGS. 10A-10G, 11A-11G and 12A-12G show the fold changes of the protein expression.

[4] = system: xenograft; experiment: Xenograft studies with rituximab; type: in vivo

CCS(=O)(=O)N1CCN(c2ccc(Nc3ncc(C(N)=O)c(NC4CC4)n3)cc2)CC1 [cerdulatinib, 4-(cyclopropylamino)-2-((4-(4-(ethylsulfonyl)piperazin-1-yl)phenyl)amino)pyrimidine-5-carboxamide]
duration of durable PR ([1]; CLL patient relapsed on BTK inhibitor): ≥ 5 months | CR (%) ([1]; CLL/SLL): (4) % | CR, number of patients ([1]; CLL/SLL): 1 | PD (%) ([1]; CLL/SLL): (4) % | PD, number of patients ([1]; CLL/SLL): 1 | PR (%) ([1]; CLL/SLL): (57) % | PR, number of patients ([1]; CLL/SLL): 16 | ORR ([1]; CLL/SLL, N 28): 61% | CR, number of patients ([1]; DLBCL, tFL, and MCL): 0 | PD (%) ([1]; DLBCL, tFL, and MCL): 60% | PD, number of patients ([1]; DLBCL, tFL, and MCL): 3 | PR (%) ([1]; DLBCL, tFL, and MCL): 20% | PR, number of patients ([1]; DLBCL, tFL, and MCL): 1 | ORR ([1]; DLBCL, tFL, and MCL, N 5): 20% | CR (%) ([1]; FL): (10) % | CR, number of patients ([1]; FL): 3 | PD (%) ([1]; FL): (10) % | PD, number of patients ([1]; FL): 3 | PR (%) ([1]; FL): (39) % | PR, number of patients ([1]; FL): 12 | duration of durable PR ([1]; FL patient relapsed on BTK inhibitor): 12 months | ORR ([1]; FL, N 31): 49% | CR, number of patients ([1]; Other Indolent Lymphoma): 0 | PD (%) ([1]; Other Indolent Lymphoma): 33% | PD, number of patients ([1]; Other Indolent Lymphoma): 4 | PR (%) ([1]; Other Indolent Lymphoma): 42% | PR, number of patients ([1]; Other Indolent Lymphoma): 5 | ORR ([1]; Other Indolent Lymphoma, N 12): 42% | CR (%) ([1]; PTCL): 33% | PD (%) ([1]; PTCL): 33% | PD, number of patients ([1]; PTCL): 5 | PR (%) ([1]; PTCL): 13% | PR, number of patients ([1]; PTCL): 2 | study drug-related Serious Adverse Events (SAEs), number ([1]; PTCL (n=16), Grade 3 to 4): 4 | duration of durable PR ([1]; PTCL patient relapsed on tenalisib): ≥ 3 months | AEs of any grade: diarrhea ([1]; PTCL patients): 33% | AEs of any grade: fatigue ([1]; PTCL patients): 22% | AEs of any grade: lipase increase ([1]; PTCL patients): 17% | AEs of any grade: nausea ([1]; PTCL patients): 17% | Grade 3+ AEs: diarrhea, number of patients ([1]; PTCL patients): 3 | Grade 3+ AEs: lipase increase, number of patients ([1]; PTCL patients): 2 | Grade 3+ AEs: neutropenia, number of patients ([1]; PTCL patients): 4 | Grade 3+ AEs: pneumonia, number of patients ([1]; PTCL patients): 2 | deaths or discontinuations due to Treatment Emergent Adverse Events ([1]; PTCL patients (n=16)): no deaths or discontinuations | CR, number of patients ([1]; PTCL, 15 evaluable): 5 | ORR ([1]; PTCL, N 15, 30 mg BID): 47% | duration of durable PR ([1]; SLL patient relapsed on venetoclax): ≥ 18 months | duration of durable PR ([1]; WM patient relapsed on BTK inhibitor): ≥ 7 months | AEs of any grade: diarrhea ([1]; all 99 patients): 42% | AEs of any grade: fatigue ([1]; all 99 patients): 36% | AEs of any grade: nausea ([1]; all 99 patients): 32% | Grade 3+ AEs: diarrhea ([1]; all 99 patients): 10% | Grade 3+ AEs: fatigue ([1]; all 99 patients): 7% | Grade 3+ AEs: lipase increase ([1]; all 99 patients): 15% | Grade 3+ AEs: neutropenia ([1]; all 99 patients): 18% | Grade 3+ AEs: pneumonia ([1]; all 99 patients): 12% | patients with Grade 5 infections considered related to study drug ([1]; all 99 patients, 3 of 5 in the CLL cohort): 5 patients | time on treatment of PTCL patients with CR still on drug ([1]; first (two) responding PTCL patients): 11 months and 12 months and 8 months | response durations ([1]; first two PTCL patients achieving a response (both CRs)): 10 months and 6 months | Toxicities ≥ Grade 3: Asthenia/Fatigue ([1]; r/r PTCL, N = 16): 6.3% | Toxicities ≥ Grade 3: Diarrhea/Colitis ([1]; r/r PTCL, N = 16): 6.3% | Toxicities ≥ Grade 3: Infection ([1]; r/r PTCL, N = 16): 18.8% | Toxicities ≥ Grade 3: Neutropenia ([1]; r/r PTCL, N = 16): 6.3% | ALC elevation relative to pre-treatment [2]: 0.3-10 fold | IL-4 induced increase of GABA1, FOXP1, SOCS1, and SOCS3 protein expression [3]: suppresses | effect on the anti-tumor activity of rituximab [4]: does not interfere
